Data reported in the supplement of paper PMC4862054.

How the values were obtained:
Settings in all cases: 72 h
MDA-MB-436 [1] = test system: MDA-MB-436
Outline: (§1)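 Each 384-well plate was pre-loaded with compound dissolved in 5 µl medium, received breast cancer cells in 20 µl suspension, and was incubated 72 h. A 2.5 µl addition of CellTiter-Blue for 2 h at 37 °C was followed by a fluorescence read at 560/590 nm. Data were normalised per plate to vehicle and a positive kill control and checked by Z'-factor. EC50 was fitted from the percent-inhibition dose-response curve, censored at the highest concentration, excluding rows with a drug sensitivity score of zero.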

SK-BR-3 = test system: SK-BR-3
Outline: as §1

HCC1599 [2] = test system: HCC1599
Description: (§2)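 Drug sensitivity and resistance testing (DSRT) of breast cancer cell lines in 384-well plates, 5 concentrations in 10-fold dilutions over a compound-specific 10,000-fold range. After 72 h, cytotoxicity was read by CellTox Green fluorescence and viability by CellTiter-Glo luminescence (multiplexed), normalised to DMSO and benzethonium chloride controls. EC50 is the inflection point of the fitted dose-response curve (bottom asymptote free, so it can be relative for partial curves) and is censored at the highest tested concentration. Rows with DSS 0 (no meaningful response) were excluded.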

MDA-MB-231 [3] = test system: MDA-MB-231
Description: as §2

MDA-MB-468 [4] = test system: MDA-MB-468
Description: as §2

CAL-148 [5] = test system: CAL-148
Outline: as §1

BT-474 [6] = test system: BT-474
Outline: as §1

CAL-120 [7] = test system: CAL-120
Outline: as §1

HCC1599 [8] = test system: HCC1599; remark: listed apart in the source
Outline: as §1

Hs578T [9] = test system: Hs578T
Outline: as §1

MDA-MB-231 [10] = test system: MDA-MB-231; remark: listed apart in the source
Outline: as §1

MDA-MB-468 [11] = test system: MDA-MB-468; remark: listed apart in the source
Outline: as §1

CAL-148 [12] = test system: CAL-148; remark: listed apart in the source
Description: as §2

CAL-85-1 = test system: CAL-85-1
Description: as §2

BT-474 [13] = test system: BT-474; remark: listed apart in the source
Description: as §2

CAL-51 = test system: CAL-51
Description: as §2

DU-4475 = test system: DU-4475
Description: as §2

HCC1937 [14] = test system: HCC1937
Description: as §2

Hs578T [15] = test system: Hs578T; remark: listed apart in the source
Description: as §2

MFM-223 [16] = test system: MFM-223
Description: as §2

BT-549 = test system: BT-549
Outline: as §1

HCC1143 = test system: HCC1143
Outline: as §1

MFM-223 [17] = test system: MFM-223; remark: listed apart in the source
Outline: as §1

HCC1937 [18] = test system: HCC1937; remark: listed apart in the source
Outline: as §1

CAL-120 [19] = test system: CAL-120; remark: listed apart in the source
Description: as §2

MDA-MB-436 [20] = test system: MDA-MB-436; remark: listed apart in the source
Description: as §2

Compound | EC50, CellTiter-Blue viability (MDA-MB-436 [1]) [µM] | EC50, CellTiter-Blue viability (SK-BR-3) [µM] | EC50, CellTiter-Blue viability (CAL-148 [5]) [µM] | EC50, CellTiter-Blue viability (BT-474 [6]) [µM] | EC50, CellTiter-Blue viability (CAL-120 [7]) [µM] | EC50, CellTiter-Blue viability (HCC1599 [8]) [µM] | EC50, CellTiter-Blue viability (Hs578T [9]) [µM] | EC50, CellTiter-Blue viability (MDA-MB-231 [10]) [µM] | EC50, CellTiter-Blue viability (MDA-MB-468 [11]) [µM] | EC50, CellTox Green (CAL-51) [µM] | EC50, CellTiter-Blue viability (BT-549) [µM] | EC50, CellTiter-Blue viability (HCC1143) [µM] | EC50, CellTiter-Blue viability (MFM-223 [17]) [µM] | EC50, CellTiter-Blue viability (HCC1937 [18]) [µM] | other results
Cc1ccc(NC(=O)c2ccc(CN3CCN(C)CC3)cc2)cc1Nc1nc(-c2cccnc2)cs1 [Masitinib] | > 10 | 6.5 | – | – | – | – | – | – | – | – | – | – | – | – | EC50, CellTox Green (HCC1599 [2]): 8.82 µM; EC50, CellTox Green (MDA-MB-231 [3]): 3.22 µM; EC50, CellTox Green (MDA-MB-468 [4]): 7.16 µM
COc1cc2ncnc(Nc3ccc(F)c(Cl)c3)c2cc1OCCCN1CCOCC1 [Gefitinib] | – | 1.58 | 1.44 | 1.01 | > 10 | 0.775 | 1.06 | > 10 | 0.808 | – | – | – | – | – | EC50, CellTox Green (CAL-148 [12]): > 10 µM; EC50, CellTox Green (CAL-85-1): 2.9 µM
COc1cc(O)c2c(c1)/C=C/C[C@H](O)[C@H](O)C(=O)/C=C\C[C@H](C)OC2=O [(5Z)-7-Oxozeaenol] | – | – | – | – | – | – | – | – | – | 9.35 | – | – | – | – | EC50, CellTox Green (BT-474 [13]): 4.93 µM; EC50, CellTox Green (CAL-148 [12]): 0.0758 µM; EC50, CellTox Green (CAL-85-1): 0.0665 µM; EC50, CellTox Green (DU-4475): 0.759 µM; EC50, CellTox Green (HCC1937 [14]): 0.305 µM; EC50, CellTox Green (Hs578T [15]): 0.253 µM; EC50, CellTox Green (MDA-MB-231 [3]): 0.864 µM; EC50, CellTox Green (MFM-223 [16]): 0.277 µM
COc1cc2/c(=N/c3ccc(Br)cc3F)nc[nH]c2cc1OCC1CCN(C)CC1 [Vandetanib] | 0.138 | 4.33 | – | 2.29 | 5.26 | – | 2.06 | 2.48 | 3.33 | – | 3.75 | > 10 | 0.926 | – | –
Nc1cc(C(F)(F)F)c(-c2cc(N3CCOCC3)nc(N3CCOCC3)n2)cn1 [BKM-120] | 4.19 | 0.257 | 1.71 | 1.18 | 0.887 | 0.517 | 3.01 | 1.91 | 2.33 | – | 1.57 | 2.35 | 1.36 | 2.09 | –
Cc1cc(Nc2cc(CN3CCOCC3)c3nc(C)c(Cc4ccc(Cl)cc4F)n3n2)n[nH]1 | 1.08 | 3.18 | – | 2.92 | 0.877 | – | 2.08 | 1.75 | 1.15 | – | 2.37 | 0.121 | 0.0835 | 3.82 | –
CN(C)c1nc(N(C)C)nc(N(C)C)n1 [Altretamine] | – | – | – | – | – | 2.95 | – | – | – | – | – | – | – | – | –
O=C(Nc1ccncc1)C(=O)c1cn(Cc2ccc(Cl)cc2)c2ccccc12 [Indibulin] | 0.0645 | 0.0261 | 5 | 0.0313 | 0.0224 | – | 0.938 | 0.0872 | 0.0618 | 0.86 | 0.135 | 0.0469 | 0.377 | 0.0181 | EC50, CellTox Green (CAL-85-1): 0.858 µM; EC50, CellTox Green (Hs578T [15]): 3.45 µM; EC50, CellTox Green (MDA-MB-231 [3]): 0.472 µM; EC50, CellTox Green (MDA-MB-468 [4]): 1.64 µM; EC50, CellTox Green (MFM-223 [16]): 0.395 µM
N#Cc1ccc(COC[C@H]2O[C@@H](n3c(NCc4ccc(Cl)c(Cl)c4)nc4c(N)ncnc43)[C@H](O)[C@@H]2O)cc1 | 1.39 | 6.1 | – | – | – | 1.35 | – | 2.87 | 6.91 | – | 5.19 | – | – | 0.619 | EC50, CellTox Green (MFM-223 [16]): 1 µM
NC(=O)c1ccc(I)c([N+](=O)[O-])c1 [Iniparib] | – | – | – | – | 3.29 | – | – | – | – | – | – | – | – | – | EC50, CellTox Green (CAL-120 [19]): > 10 µM
c1ccc2c(CCNc3ccc(Nc4ccncc4)cc3)c[nH]c2c1 [Serdemetan] | 0.54 | – | 4.53 | – | – | 1.61 | 1.54 | – | – | 0.285 | 1.56 | – | – | – | EC50, CellTox Green (CAL-148 [12]): 2.31 µM; EC50, CellTox Green (DU-4475): 1.81 µM; EC50, CellTox Green (MDA-MB-231 [3]): 8.8 µM; EC50, CellTox Green (MFM-223 [16]): 7.78 µM
CNC(=O)c1cc(Oc2ccc(NC(=O)Nc3ccc(Cl)c(C(F)(F)F)c3)c(F)c2)ccn1 [Regorafenib] | – | – | – | 8.34 | 9.38 | 7.36 | 6.69 | 2.37 | 7.8 | – | 7.21 | 0.00384 | 0.706 | 5.96 | EC50, CellTox Green (HCC1937 [14]): 4.88 µM
Cc1cc(Nc2cc(CN3CCOCC3)c3nc(C)c(Cc4ccc(Cl)cc4F)n3n2)n[nH]1 [Gandotinib] | – | – | – | – | – | – | – | – | – | 1.39 | – | – | – | – | EC50, CellTox Green (CAL-85-1): 6.59 µM; EC50, CellTox Green (Hs578T [15]): 2.04 µM; EC50, CellTox Green (MDA-MB-436 [20]): 0.241 µM; EC50, CellTox Green (MDA-MB-468 [4]): 4.5 µM
COc1cc(OC2CCN(C)CC2)ccc1Nc1ncc2c(n1)n(C1CCCC1)c(=O)n2C [AZ 3146] | – | 1.05 | 1.99 | – | > 10 | – | – | 8.03 | – | 0.768 | – | – | – | – | EC50, CellTox Green (HCC1599 [2]): > 10 µM; EC50, CellTox Green (MDA-MB-436 [20]): > 10 µM
CN(C)CCOc1ccc(/C(=C(/CCCl)c2ccccc2)c2ccccc2)cc1 [Toremifene] | 2.2 | – | – | – | – | – | – | – | 5.6 | – | – | – | – | – | EC50, CellTox Green (BT-474 [13]): 6.16 µM; EC50, CellTox Green (HCC1937 [14]): 3.45 µM
CCn1c(-c2nonc2N)nc2cnc(Oc3cccc(NC(=O)c4ccc(OCCN5CCOCC5)cc4)c3)cc21 | – | – | – | – | – | – | – | – | – | 0.0481 | – | – | – | – | EC50, CellTox Green (MDA-MB-231 [3]): 2.95 µM; EC50, CellTox Green (MDA-MB-468 [4]): > 10 µM
CCc1c2c(nc3ccc(OC(=O)N4CCC(N5CCCCC5)CC4)cc13)-c1cc3c(c(=O)n1C2)COC(=O)[C@]3(O)CC [Irinotecan] | 1.01 | 3.74 | 1.17 | – | 1.11 | 0.692 | – | 8.35 | 1.43 | 1.22 | 4.11 | 2.35 | 9.11 | 0.961 | EC50, CellTox Green (CAL-120 [19]): 5.53 µM; EC50, CellTox Green (CAL-148 [12]): 0.304 µM; EC50, CellTox Green (Hs578T [15]): > 10 µM
CNC(=O)c1cccc(-c2ccc3c(N4CCOC[C@@H]4C)nc(N4CCOC[C@@H]4C)nc3n2)c1 [AZD2014] | – | – | – | – | – | – | – | – | – | – | – | – | – | – | EC50, CellTox Green (CAL-148 [12]): 0.13 µM; EC50, CellTox Green (MFM-223 [16]): > 10 µM
